Experimental findings from patent publication US8658647B2, “Integrin-linked kinase inhibitors” (The Ohio State University Research Foundation, priority 2010, dated 2014) are described below.

Usually IC50 stands for the concentration at which inhibition is half-maximal.

For series [1], the system named is Akt phosphorylation at the PDK2 site [S473] versus the PDK1 site [T308]. As to the kind of experiment: Western blot of Akt phosphorylation at PDK2 (S473) vs PDK1 (T308) sites in PC-3 cells. Type of series: cell-based, human. Conditions: 24 h, 2.5 μM, 5% FBS. As to the method: (§1) FIG. 2 provides (A) Western blot analysis of the effects of compounds 1-9 on Akt phosphorylation at the PDK1 (T308) and PDK2 (S473) sites in PC-3 human prostate cancer cells after 24 h treatment at 2.5 μM in the presence of 5% fetal bovine serum (FBS), and (B) Dose-dependent effects of compounds 1-9 on the viability of PC-3 cells treated as described above in A. Cell viability was assessed by MTT assay. Points, mean; bars, ±SD.
A general note: A western blot detects proteins with antibodies after separation by electrophoresis.

In series [2] the test system is downstream targets of ILK (Akt-S473; GSK3β-S9). Kind of series: Western blot of downstream targets of ILK, dose-dependent (FIG. 4). Type of series: cell-based, human. The settings on record: PC-3 and MDA-MB-468 cells, 24 h, 5% FBS. As to the method:
FIG. 4 provides evidence that Compound 2 suppresses the ILK signaling pathway. Western blot analysis of the dose-dependent effect of Compound 2 on downstream targets of ILK (Akt-S473; GSK3β-S9) in PC-3 and […] cells. Cells were treated for 24 h at the indicated concentrations in the presence of 5% FBS.
Based on western blot data showing the selective reduction in phospho-Akt-S473 levels relative to those of phospho-Akt-T308 (FIG. 2A), compound 2 was identified as an inhibitor of PDK2 activity. To evaluate compound 2 for the ability to inhibit ILK signaling, its effect on downstream targets of ILK was assessed in PC-3 and MDA-MB-468 cells by Western blotting (FIG. 4).

Series [3] has as its system prostate (PC-3, LNCaP) and breast cancer (MDA-MB-468, MDA-MB-231, CAL51, MCF-7, SKBR3) cell lines vs nonmalignant prostate (PrEC) and mammary epithelial cells …. As to the kind of experiment: MTT cell viability in panel of prostate and breast cancer cell lines vs nonmalignant epithelial cells. Type of series: cell-based, human. Conditions: 12, 24 or 48 h. As to the method:
Time- and/or dose-dependent effects of compound 2 on cell viability in (A) prostate cancer (PC-3, LNCaP) and nonmalignant prostate epithelial cells (PrEC), and (B) breast cancer (MDA-MB-468, MDA-MB-231, CAL51, MCF-7, SKBR3) and nonmalignant mammary epithelial cells (MEC) were determined. Cells were treated for 12, 24 or 48 h at the indicated concentrations and cell viability determined by MTT assays. Points, mean; bars, ±SD.
As structurally related compounds 2 and 3 differ only in that the N-alkyl moiety, i.e., methyl versus ethyl, compound 2 was selected for more thorough evaluation. Dose- and time-dependent effects of compound 2 on cell viability were determined in a panel of two prostate (PC-3, LNCaP) and five breast cancer (MDA-MB-468, MDA-MB-231, CAL51, MCF-7, SKBR3) cell lines (FIGS. 3A and B). Moreover, cancer cell lines were also evaluated in parallel with nonmalignant prostate and mammary epithelial cells (FIG. 3A, lower panel; 3B lower right panel).

Series [4] has as its system PC-3 tumor xenografts. Kind of series: PC-3 prostate tumor xenograft model, oral dosing. Type of series: in vivo. Conditions: 35 days. As to the method:
PC-3 tumors were established in male athymic nude mice by subcutaneous injection of 5×10^5 PC-3 cells in a total volume of 0.1 ml serum-free medium containing 50% Matrigel. Mice with established tumors were randomized to three groups receiving the indicated treatments once daily by gavage for 35 days. Tumor sizes and body weights were measured weekly. Points, mean tumor volume; bars, ±SD.
The In vivo tumor suppressive activity of compound 2 in the PC-3 prostate tumor xenograft model was also evaluated. Based on the results described above, compound 2 was identified as the lead agent for development as a novel ILK/PDK2 inhibitor. To evaluate the in vivo antitumor activity of compound 2, athymic nude mice bearing established subcutaneous PC-3 tumor xenografts (mean starting tumor volume, 157.1±29.1 mm^3) were treated orally for 35 days with compound 2 at 25 or 50 mg/kg once daily or with vehicle (0.5% methylcellulose and 0.1% Tween 80 in sterile water) (n=5 mice). […] The in vivo efficacy of compound 2 after oral administration indicates its oral bioavailability.

The subject of series [5] is PC-3 human prostate cancer cells. As to the kind of experiment: MTT cell viability assay in PC-3 cells. Type of series: cell-based. The settings on record: 24 h, 5% FBS; for IC50: Homo sapiens, read-out: IC50, antiproliferative activity. As to the method:
as §1
(§2) FIG. 5 provides the results from the screening of compounds 10-13. (A) Dose-dependent effects of compounds 10-13 and 2 on the viability of PC-3 cells after 24 h treatment […] in the presence of 5% FBS. Cell viability was assessed by MTT assay. Points, mean; bars, ±SD. (B) Western blot analysis of the effects of compounds 2 and 13 on the phosphorylation status of downstream targets of ILK in PC-3 cells.
(§3) In another series of tests, Compounds 10-13 were screened for antiproliferative activity, in parallel with compound 2, by MTT assay in PC-3 human prostate cancer cells. […] The effects of compound 13, vs. compound 2, on the phosphorylation status of downstream targets of ILK in PC-3 cells were evaluated by western blotting.
A general note: Tetrazolium assays rely on reduction of a dye to a coloured formazan, in cell work by metabolically active cells.

In series [6] the test system is MCF-7 human breast cancer cells. As to the kind of experiment: MTT cell viability assay in MCF-7 cells. Type of series: cell-based. The settings on record: MCF7, 24 h, 5% FBS, read-out: IC50, antiproliferative activity. As to the method:
(§4) Dose-dependent effects of compounds 4-9 in MCF-7 (upper panel) and SKBR3 (lower) cells after 24 h treatment in the presence of 5% FBS. Cell viability was assessed by MTT assay. Points, mean; bars, ±SD.
(§5) Compounds 4-9, which were screened previously in a prostate cancer cell line (FIG. 2), were evaluated for antiproliferative activity in MCF-7 and SKBR3 human breast cancer cells.

Series [7] deals with SKBR3 human breast cancer cells. As to the kind of experiment: MTT cell viability assay in SKBR3 cells. Type of series: cell-based. The settings on record: SK-BR-3, 24 h, 5% FBS, read-out: IC50, antiproliferative activity. As to the method: as §4, §5
The subject of series [8] is downstream targets of ILK. Kind of series: Western blot of phosphorylation status of downstream targets of ILK in PC-3 cells (FIG. 5B). Type of series: cell-based, human. As to the method:
as §2, §3

Regarding `CNC(=O)CCc1cc(-c2ccc(-c3ccc(C(F)(F)F)cc3)cc2)n(-c2ccc(N3CCNCC3)cc2)n1` [Compound 2, N-methyl-3-(1-(4-(piperazin-1-yl)phenyl)-5-(4′-(trifluoromethyl)-[1,1′-biphenyl]-4-yl)-1H-pyrazol-3-yl)propanamide], in series [1], the “selective inhibition of Akt-S473 phosphorylation (PDK2 inhibitory activity)” value is “marked selective inhibition of Akt-S473 phosphorylation”. In series [2], the phospho-S473-Akt levels result was “marked and selective decrease”; the “phosphorylation of GSK3β” value is “reduced the phosphorylation”. Besides, the “selectivity of cytotoxicity, cancer cells versus nonmalignant cells” value in series [3] is “selective cytotoxicity for cancer cells versus their nonmalignant counterparts”. In addition, the “inhibition of PC-3 tumor growth relative to vehicle-treated controls” value in series [4] (25 mg/kg once daily oral, P=0.10) stood at 42%. The “inhibition of PC-3 tumor growth relative to vehicle-treated controls” value in series [4] (50 mg/kg once daily oral, P=0.03) amounted to 56%. Besides, in series [4] (25 or 50 mg/kg once daily oral), the “changes in body weight” value is “nor significant changes in body weight” and the “tolerability, signs of toxicity” value was “no overt signs of toxicity”. Further, in series [5], the “antiproliferative activity, relative potency among compounds 1-9” value was “most potent among the nine compounds”.

In the case of `CCNC(=O)CCc1cc(-c2ccc(-c3ccc(C(F)(F)F)cc3)cc2)n(-c2ccc(N3CCNCC3)cc2)n1` [Compound 3, N-ethyl-3-(1-(4-(piperazin-1-yl)phenyl)-5-(4′-(trifluoromethyl)-[1,1′-biphenyl]-4-yl)-1H-pyrazol-3-yl)propanamide], the “selective inhibition of Akt-S473 phosphorylation (PDK2 inhibitory activity)” value in series [1] is “marked selective inhibition of Akt-S473 phosphorylation”. For the same molecule, the “antiproliferative activity, relative potency among compounds 1-9” value in series [5] is “most potent among the nine compounds”.

As to `CCNC(=O)c1cc(-c2ccc(-c3ccc(C(F)(F)F)cc3)cc2)n(-c2ccc(NC(=O)CCN)cc2)n1` [Compound 5, 1-(4-(3-aminopropanamido)phenyl)-N-ethyl-5-(4′-(trifluoromethyl)-[1,1′-biphenyl]-4-yl)-1H-pyrazole-3-carboxamide], the half-maximal inhibitory concentration (IC50) in series [6] and in series [7] was 4 to 5 µM throughout.

Regarding `CNC(=O)CCc1cc(-c2ccc(-c3ccc(C)cc3)cc2)n(-c2ccc(N3CCNCC3)cc2)n1` [Compound 11, N-methyl-3-(5-(4′-methyl-[1,1′-biphenyl]-4-yl)-1-(4-(piperazin-1-yl)phenyl)-1H-pyrazol-3-yl)propanamide], the IC50 in series [5] fell in the range of 2 to 3 µM.

On to `CNC(=O)CCc1cc(-c2ccc3c(ccc4ccccc43)c2)n(-c2ccc(N3CCNCC3)cc2)n1` [Compound 13, N-methyl-3-(5-(phenanthren-2-yl)-1-(4-(piperazin-1-yl)phenyl)-1H-pyrazol-3-yl)propanamide], for which, in series [8], the “phospho-Akt-S473 relative to phospho-Akt-T308” value is reported as “strong reduction” and the “suppressive activity against GSK3β phosphorylation” value is “did not exhibit substantial suppressive activity”. Also, the IC50 in series [5] was in the range of 2 to 3 µM.
